Results as given in PMC4657531 (EXCLI Journal, 2013).

Tested on: β-glucosidase
Experiment: DNS reducing sugar assay, Lineweaver-Burk plot
Type: biochemical, Penicillium simplicissimum
Settings: citrate buffer pH 4.8, 50 °C, 30 min; salicin 5-50 mg/ml

Km: 14.881 mg/mL
Structure (SMILES): OCc1ccccc1O[C@@H]1O[C@H](CO)[C@@H](O)[C@H](O)[C@H]1O [salicin]
